Results from US20070087346A1, “Orthogonal gene switches” (priority 2003, published 2007).
Numbering of substitutions follows the chain as printed. Structures can show the parent of a compound that is named as a salt. Where two headings read alike, the source gives them in different places.

How the values were obtained:
[1] = target: T1, HEA-1 (Homo sapiens, UniProt P03372, G521R); settings: cell culture; Roscilli et al., 2002; cited from earlier work
T1 sequence (P03372 303-595 G521R): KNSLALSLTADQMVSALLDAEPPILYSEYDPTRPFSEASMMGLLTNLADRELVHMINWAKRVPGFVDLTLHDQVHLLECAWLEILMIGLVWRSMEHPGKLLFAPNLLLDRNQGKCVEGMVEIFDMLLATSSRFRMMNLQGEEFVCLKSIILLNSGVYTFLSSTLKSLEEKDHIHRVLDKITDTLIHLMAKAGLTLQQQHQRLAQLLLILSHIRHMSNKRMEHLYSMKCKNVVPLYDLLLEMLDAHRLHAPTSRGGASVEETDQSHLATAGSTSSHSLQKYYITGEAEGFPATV

[2] = system: MG-LBD variant with Gly521 substituted with Val, Leu, Met, or Arg; assay: β-Galactosidase transcription assay in yeast, Gly521 substitutions in MG-LBD; assay type: cell-based, human; settings: data not shown
[3] = target: T2, hERα (Homo sapiens, UniProt P03372); assay: binding to full-length hERα
T2 construct: relative to the wt LBD and to both α and β full-length ER
T2 sequence (P03372 1-595): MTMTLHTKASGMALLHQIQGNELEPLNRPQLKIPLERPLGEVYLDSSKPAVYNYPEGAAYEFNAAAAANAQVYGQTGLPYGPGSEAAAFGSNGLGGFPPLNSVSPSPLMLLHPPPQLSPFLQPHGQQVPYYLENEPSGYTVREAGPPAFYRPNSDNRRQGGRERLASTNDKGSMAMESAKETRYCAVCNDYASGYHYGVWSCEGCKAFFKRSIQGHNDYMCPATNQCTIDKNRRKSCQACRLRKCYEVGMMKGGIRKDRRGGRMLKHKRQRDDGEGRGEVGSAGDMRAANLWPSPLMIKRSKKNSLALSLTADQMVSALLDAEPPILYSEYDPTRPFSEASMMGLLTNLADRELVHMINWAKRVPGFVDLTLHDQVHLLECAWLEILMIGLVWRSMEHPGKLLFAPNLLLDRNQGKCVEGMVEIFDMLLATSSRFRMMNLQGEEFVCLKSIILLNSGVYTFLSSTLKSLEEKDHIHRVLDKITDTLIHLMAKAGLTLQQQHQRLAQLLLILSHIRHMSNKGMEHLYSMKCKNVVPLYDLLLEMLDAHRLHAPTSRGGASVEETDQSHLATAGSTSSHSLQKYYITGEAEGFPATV

[4] = target: hERβ (Homo sapiens, UniProt Q92731); assay: binding to full-length hERβ; settings: full-length receptor
Chain of hERβ (Q92731 whole entry, the tested form may be a part): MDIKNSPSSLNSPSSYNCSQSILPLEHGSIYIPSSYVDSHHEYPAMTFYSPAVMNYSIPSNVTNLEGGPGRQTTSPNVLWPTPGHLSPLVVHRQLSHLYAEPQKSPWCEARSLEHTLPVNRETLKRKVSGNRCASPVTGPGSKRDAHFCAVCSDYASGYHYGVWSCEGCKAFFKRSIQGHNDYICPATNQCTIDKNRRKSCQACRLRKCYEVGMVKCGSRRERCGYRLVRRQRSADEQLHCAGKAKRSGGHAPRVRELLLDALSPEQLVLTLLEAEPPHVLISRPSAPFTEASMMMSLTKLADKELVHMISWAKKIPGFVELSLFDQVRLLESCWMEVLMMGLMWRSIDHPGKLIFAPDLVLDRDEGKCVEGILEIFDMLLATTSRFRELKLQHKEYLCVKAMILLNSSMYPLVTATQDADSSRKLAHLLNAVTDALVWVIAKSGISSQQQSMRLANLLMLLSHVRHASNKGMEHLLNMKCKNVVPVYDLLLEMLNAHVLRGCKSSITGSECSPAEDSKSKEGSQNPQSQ

[5] = target: T3, GST-ERα wt-LBD (Homo sapiens, UniProt P03372); assay: competitive radiometric 3[H]E2 displacement binding assay, wt LBD
T3 construct: made in house; host or cells: E. coli BL21 (CodonPlus DE3-RIL)
T3 sequence (P03372 303-595): T1 sequence (P03372 303-595 G521R) with R219G
Description: Microplates (Basic Flashplates, NEN) wells were coated for 12 hrs at 4° C. with 100 μl of PBS containing anti-GST antibodies (Amersham) at a concentration of 5 μg/ml. After washing three times with 200 μl of PBS, the background was reduced by saturating with 200 μl of PBS containing 1% BSA for 3 hrs at 4° C. Wells were then washed three times with 200 μl of lysis buffer containing 0.1 M NaCl and 0.2% n-Dodecyl BD-maltoside (assay buffer).
Suitable amounts of crude E. coli supernatants containing the GST-ER LBD proteins (2-10 μl) or of purified polypeptides (8 nM) were bound to the anti-GST antibody-coated wells for 1 hr at 23° C. in 200 μl of the assay buffer with constant agitation. After three more washes with 200 μl of the same buffer, the ligand-binding reaction was set up in 195 μl of assay buffer containing 2 nM-10 nM 3[H]E2 and 5 μl of DMSO or of suitable dilutions of the test compounds in DMSO. Incubation was for 2 hrs at 23° C. with constant shaking, followed by SPA radioactivity measurement using a microplate scintillation and luminescence counter (Top Count NXT, Packard). IC50 values were obtained by multiparameter logistic fitting of the experimental data with the aid of a Kaleidagraph software.

[6] = 3[H]E2 displacement, read-out: GST-ERα wt-LBD IC50
[7] = full-length receptor, read-out: hERα IC50

Compound	IC50 [4] [nM]	IC50 [5, 6] [nM]	IC50 [3, 7] [nM]	further results
4 hydroxytamoxifen [4-OH Tam]				drug-dependent transgene induction [1]: up to hundred-fold
CC1=C2c3ccc(O)cc3CC2(Cc2ccccc2)CCC1=O (stereo not shown) [CMP4, 9a-benzyl-7-hy-droxy-4-methyl-1,2,9,9a-tetra-hydro-3H-fluor-en-3-one]	506	2320		response (trans-activation in yeast) [2]: dramatic loss of response; IC50 [3]: 1470 nM
CC1=C2c3ccc4[nH]ncc4c3CC2(Cc2ccccc2)CCC1=O (stereo not shown) [CMP5, 6-methyl-9a-ben-zyl-8,9,9a,10-tetra-hydroindeno[2,1-e]in-dazol-7(3H)-one]	1250	> 10000	> 10000	
O=C1CCC2(Cc3ccccc3)Cc3cc(O)ccc3C2=C1c1ccc(O)cc1 (stereo not shown) [CMP6, 9a-benzyl-7-hydroxy-4-(4-hy-droxyphenyl)-1,2,9,9a-tetra-hydro-3H-flour-en-3-one]	96			IC50 [3]: 223 nM; IC50 [5]: 1370 nM
CCCCC1=C2c3ccc(O)cc3CC2(Cc2ccccc2)CCC1=O (stereo not shown) [CMP7, 9a-benzyl-4-butyl-7-hy-droxy-1,2,9,9a-tetra-hydro-3H-fluor-en-3-one]	307	1310	259	
O=C1CCC2(Cc3ccc(Cl)cc3)Cc3cc(O)ccc3C2=C1c1ccc(OCCN2CCCCC2)cc1 (stereo not shown) [CMP8, 9a-(4-chlorobenzyl)-7-hy-droxy-4-{4-[2-(1-pipe-ridinyl)-eth-oxy]phenyl}-1,2,9,9a-tetra-hydro-3H-fluor-en-3-one]	2230	4440	1080	
O=C1CCC2(Cc3ccccc3)Cc3c(ccc4[nH]ncc34)C2=C1c1ccc(OCCN2CCCCC2)cc1 (stereo not shown) [CMP9, 9a-benzyl-6-{4-[2-(1-pipe-ridinyl)eth-oxy]phenyl}-8,9,9a,10-tetra-hydroindeno[2,1-e]in-dazol-7(3H)-one hydrotrifluoroacetae salt]	125			
O=C1CCC2(Cc3ccccc3)Cc3cc(O)ccc3C2=C1c1ccc(OCCN2CCCCC2)cc1 (stereo not shown) [CMP10, 9a-benzyl-7-hy-droxy-4-{4-[2-(1-pipe-ridinyl)-eth-oxy]phenyl}-1,2,9,9a-tetra-hydro-3H-fluor-en-3-one]	184			IC50 [3]: 375 nM; IC50 [5]: 1270 nM
O=C1CCC2(Cc3ccccc3)Cc3cc(O)ccc3C2=C1c1ccc(OCCN2CCOCC2)cc1 (stereo not shown) [CMP11, 9a-benzyl-7-hy-droxy-4-{4-[2-(4-mor-pholinyl)-eth-oxy]phenyl}-1,2,9,9a-tetra-hydro-3H-fluor-en-3-one]				IC50 [5]: 2310 nM
CC1=C2c3ccc(O)cc3CC2(Cc2ccc(Cl)cc2)CCC1=O (stereo not shown) [CMP17, 9a-(4-chlorobenzyl)-7-hy-droxy-4-methyl-1,2,9,9a-tetra-hydro-3%{H}-fluor-en-3-one]		6830		

More lines, main results first:

IC50 [4] [nM]	IC50 [5, 6] [nM]	IC50 [3, 7] [nM]	Compound	further results
	4170		CN(C)CCOc1ccc(C2=C3c4ccc(O)cc4CC3(Cc3ccccc3)CCC2=O)cc1 (stereo not shown) [CMP12, 9a-benzyl-4-{4-[2-(di-methylamino)ethoxy]phe-nyl}-7-hydroxy-1,2,9,9a-tetra-hydro-3H-fluor-en-3-one]	
	> 3600		O=C1CCC2(Cc3ccccc3)Cc3cc(O)ccc3C2=C1c1ccccn1 (stereo not shown) [CMP13, 9a-benzyl-7-hydroxy-4-py-ridin-2-yl-1,2,9,9a-tetra-hydro-3H-fluor-en-3-one]	
	> 3600		O=C1CCC2(Cc3ccccc3)Cc3cc(O)ccc3C2=C1c1cccnc1 (stereo not shown) [CMP14, 9a-benzyl-7-hydroxy-4-py-ridin-3-yl-1,2,9,9a-tetra-hydro-3H-fluor-en-3-one]	
558	725	1180	O=C1CCC2(Cc3ccccc3)Cc3cc(O)ccc3C2=C1c1ccncc1 (stereo not shown) [CMP15, 9a-benzyl-7-hydroxy-4-py-ridin-4-yl-1,2,9,9a-tetra-hydro-3H-fluor-en-3-one]	
	> 180000		CC1=C2c3cc(Br)c(O)c(Br)c3CC2(Cc2ccccc2)CCC1=O (stereo not shown) [CMP24, 9a-benzyl-6,8-di-bromo-7-hydroxy-4-meth-yl-1,2,9,9a-tetra-hydro-3%{H}-fluor-en-3-one]	
997			CC1=C2c3ccc4[nH]ncc4c3CC2(Cc2ccc(F)cc2)CCC1=O (stereo not shown) [CMP25, 6-methyl-9a-(4-fluoro-benzyl)-8,9,9a,10-tetra-hydroindeno[2,1-e]in-dazol-7(3H)-one]	
1070			CC1=C2c3ccc4[nH]ncc4c3CC2(Cc2cccc(F)c2)CCC1=O (stereo not shown) [CMP26, 6-methyl-9a-(3-fluoro-benzyl)-8,9,9a,10-tetra-hydroindeno[2,1-e]in-dazol-7(3H)-one]	
529		4300	CC1=C2c3ccc4[nH]ncc4c3CC2(Cc2ccccc2F)CCC1=O (stereo not shown) [CMP27, 6-methyl-9a-(2-fluoro-benzyl)-8,9,9a,10-tetra-hydroindeno[2,1-e]in-dazol-7(3H)-one]	
4190			CC1=C2c3ccc4nn[nH]c4c3CC2(Cc2ccccc2)CCC1=O (stereo not shown) [CMP30, 9a-benzyl-6-methyl-8,9,9a,10-tetra-hydrofluoreno[1,2-d][1,2,3]tri-azol-7(3H)-one]	
> 10000		> 10000	CC1=C2c3ccc4[nH]nnc4c3CC2(Cc2ccccc2C(F)(F)F)CCC1=O (stereo not shown) [CMP34, 9a-[2-(tri-fluoromethyl)benzyl]-6-meth-yl-8,9,9a,10-tetra-hydrofluoreno[1,2-d][1,2,3]tri-azol-7(3H)-one]	
